# Measured values taken from patent US6525001B1, “Substituted pyrimidine and pyridine herbicides” (Mid-American Commercialization Corporation, priority 1997, dated 2003).
# Assays:
# Type in all cases: in vivo
# [1] = test system: fall panicum (Panicum dichotomiflorum); test: Test C; design: key: 0 was no effect; 100 was complete control; conditions: PREEMERGENCE
# [2] = test system: common ragweed (Ambrosia elatior); test: Test C; design: key: 0 was no effect; 100 was complete control; conditions: PREEMERGENCE
# [3] = test system: johnsongrass (Sorghum halepense); test: Test C; design: key: 0 was no effect; 100 was complete control; conditions: PREEMERGENCE
# [4] = test system: surinam grass (Brachiaria decumbens); test: Test C; conditions: PREEMERGENCE
# [5] = test system: duck salad (Heteranthera limosa); test: Test B flood test; design: key: 0 is no effect; 10 is complete control; conditions: for Plant response rating, Ducksalad: Postemergence (flood test species)
# Outline: (§1)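 Each value is a visual injury score relative to controls, with 10 meaning complete control and 0 no effect. Evaluation took place twelve to sixteen days after the 2-leaf-stage plants were treated and kept in the greenhouse.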
# [6] = test system: smallflower flatsedge (Cyperus difformis); test: Test B flood test; design: key: 0 is no effect; 10 is complete control; conditions: for Plant response rating, S. Flatsedge: Postemergence (flood test species)
# Outline: as §1
# [7] = test system: bamyardgrass (Echinochloa crus-galli); test: Test B flood test; design: key: 0 is no effect; 10 is complete control; conditions: for Plant response rating, Barnyardgrass: Postemergence (flood test species)
# Outline: as §1
# rice (Oryza sativa) = test: Test B flood test; design: key: 0 is no effect; 10 is complete control; conditions: for Plant response rating, Rice: Postemergence (flood test species)
# Outline: as §1
# [8] = test system: purple nutsedge (Cyperus rotundus); test: Test C; design: key: 0 was no effect; 100 was complete control; conditions: PREEMERGENCE
# [9] = test system: blackgrass (Alopecurus myosuroides); test: Test B pre-/postemergence; design: key: 0 is no effect; 10 is complete control
# Outline: (§2)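 Response scores run from 0, meaning no effect, to 10, meaning complete control, assigned by eye relative to controls twelve to sixteen days after spraying. Treatment was both preemergence on planted seed and postemergence on plants at the 1- to 4-leaf stage.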
# wild oat (Avena fatua) = test: Test B pre-/postemergence; design: key: 0 is no effect; 10 is complete control
# Outline: as §2
# [10] = test system: purple nutsedge (Cyperus rotundus); test: Test E pre-/postemergence/post directed; design: key: 0 is no injury; 100 is complete control; conditions: PREEMERGENCE
# Source text: (§3) Seeds, tubers, or plant parts of alexandergrass (Brachiaria plantaginea), annual bluegrass (Poa annua), arrowleaf sida (Sida rhombifolia), barnyardgrass (Echinochloa crus-galli), bermudagrass (Cynodon dactylon), citrus (Citrus sinensis), common chickweed (Stellaria media), common purslane (Portulaca oleracea), common ragweed (Ambrosia elatior), common groundsel (Senecio vulgaris), dallisgrass (Paspalum dilatatum), goosegrass (Eleusine indica), green foxtail (Setaria viridis), guineagrass (Panicum maximum), itchgrass (Rottboellia exaltata), johnson grass (Sorghum halepense), kochia (Kochia scoparia), large crabgrass (Digitaria sanguinalis), leafy spurge (Euphorbia esula), pitted morningglory (Ipomoea lacunosa), purple nutsedge (Cyperus rotundus), quackgrass (Agropyron repens), Russian thistle (Salsola kali), sandbur (Cenchrus echinatus), sourgrass (Trichachne insularis), Spanishneedles (Bidens bipinnata), sugarcane (Saccharum officinarum), surinam grass (Brachiaria decumbens) and tall mallow (Malva sylvestris) were planted into greenhouse pots of flats containing greenhouse planting medium. Plant species were grown grown in separate pots or individual compartments. Preemergence applications were made within one day of planting the seed or plant part. Postemergence applications were applied when the plants were in the two to four leaf stage (three to twenty cm).
# (§4) Test chemicals were formulated in a non-phytotoxic solvent mixture which included a surfactant and applied preemergence to the soil surface, postemergence to the plants or as a post directed spray to plants and soil at the base of the target species. Untreated control plants and treated plants were placed in the greenhouse and visually evaluated for injury 13 to 21 days after herbicide application. Plant response ratings, summarized in Table E, are based on a 0 to 100 scale where 0 is no injury and 100 is complete control. A dash (−) response means no test result.
# [11] = test system: pitted morningglory (Ipomoea lacunosa); test: Test E pre-/postemergence/post directed; conditions: PREEMERGENCE
# Source text: as §3, §4
# [12] = test system: common groundsel (Senecio vulgaris); test: Test E pre-/postemergence/post directed; conditions: PREEMERGENCE
# Source text: as §3, §4
# [13] = Rate 62 g/ha, Postemergence (flood test)
# [14] = Rate 125 g/ha, Postemergence section (flood test species)
# [15] = Preemergence, Rate 62 g/ha, scale of 0 to 10
structure (smiles),measurement,setting,value
Cc1cnc(-n2ccc(C(F)(F)F)n2)nc1C(=O)c1cccc(OC(F)(F)F)c1 [Compound 66],"Plant response rating, Fall panicum",[1]; Rate 35 g/ha,80
same,"Plant response rating, Fall panicum",[1]; Rate 70 g/ha,80
same,"Plant response rating, Fall panicum",[1]; Rate 140 g/ha,100
same,"Plant response rating, Common ragweed",[2]; Rate 35 g/ha,0
same,"Plant response rating, Common ragweed",[2]; Rate 70 g/ha,0
same,"Plant response rating, Common ragweed",[2]; Rate 140 g/ha,30
same,"Plant response rating, Johnsongrass",[3]; Rate 35 g/ha,0
same,"Plant response rating, Johnsongrass",[3]; Rate 70 g/ha,5
same,"Plant response rating, Johnsongrass",[3]; Rate 140 g/ha,10
same,"Plant response rating, Surinam grass",[4]; Rate 35 g/ha,5
same,"Plant response rating, Surinam grass",[4]; Rate 70 g/ha,5
same,"Plant response rating, Surinam grass",[4]; Rate 140 g/ha,20
same,Ducksalad plant response rating,[5]; [13],2
same,Ducksalad plant response rating,[5]; [14],3
same,"Plant response rating, Ducksalad",[5]; Rate 250 g/ha,5
same,"Plant response rating, Ducksalad",[5]; Rate 500 g/ha,7
same,S. Flatsedge plant response rating,[6]; [13],6
same,S. Flatsedge plant response rating,[6]; [14],8
same,"Plant response rating, S. Flatsedge",[6]; Rate 250 g/ha,8
same,"Plant response rating, S. Flatsedge",[6]; Rate 500 g/ha,9
same,Barnyardgrass plant response rating,[7]; [13],3
same,Barnyardgrass plant response rating,[7]; [14],3
same,"Plant response rating, Barnyardgrass",[7]; Rate 250 g/ha,4
same,"Plant response rating, Barnyardgrass",[7]; Rate 500 g/ha,4
same,Rice plant response rating,rice (Oryza sativa); [13],0
same,Rice plant response rating,rice (Oryza sativa); [14],1
same,"Plant response rating, Rice",rice (Oryza sativa); Rate 250 g/ha,1
same,"Plant response rating, Rice",rice (Oryza sativa); Rate 500 g/ha,2
same,"Plant response rating, Purple nutsedge",[8]; Rate 35 g/ha,0
same,"Plant response rating, Purple nutsedge",[8]; Rate 70 g/ha,0
same,"Plant response rating, Purple nutsedge",[8]; Rate 140 g/ha,0
same,"Plant response rating, Blackgrass",[9]; [15],3
same,Blackgrass plant response rating,"[9]; Rate 62 g/ha, Postemergence",2
same,Blackgrass plant response rating,"[9]; Rate 125 g/ha, Postemergence",3
same,"Plant response rating, Blackgrass","[9]; Rate 125 g/ha, Preemergence",3
same,"Plant response rating, Blackgrass","[9]; Rate 250 g/ha, Postemergence",5
same,"Plant response rating, Blackgrass","[9]; Rate 250 g/ha, Preemergence",8
same,"Plant response rating, Blackgrass","[9]; Rate 500 g/ha, Postemergence",6
same,"Plant response rating, Blackgrass","[9]; Rate 500 g/ha, Preemergence",10
same,"Plant response rating, Wild oats",wild oat (Avena fatua); [15],2
same,Wild oats plant response rating,"wild oat (Avena fatua); Rate 62 g/ha, Postemergence",2
same,Wild oats plant response rating,"wild oat (Avena fatua); Rate 125 g/ha, Postemergence",2
same,"Plant response rating, Wild oats","wild oat (Avena fatua); Rate 125 g/ha, Preemergence",4
same,"Plant response rating, Wild oats","wild oat (Avena fatua); Rate 250 g/ha, Postemergence",2
same,"Plant response rating, Wild oats","wild oat (Avena fatua); Rate 250 g/ha, Preemergence",5
same,"Plant response rating, Wild oats","wild oat (Avena fatua); Rate 500 g/ha, Postemergence",3
same,"Plant response rating, Wild oats","wild oat (Avena fatua); Rate 500 g/ha, Preemergence",5
Cc1cnc(-n2cnc(C(F)(F)F)n2)nc1C(=O)c1cccc(C(F)(F)F)c1 [Compound 67],Ducksalad plant response rating,[5]; [13],3
same,Ducksalad plant response rating,[5]; [14],4
same,"Plant response rating, Ducksalad",[5]; Rate 250 g/ha,6
same,"Plant response rating, Ducksalad",[5]; Rate 500 g/ha,8
same,S. Flatsedge plant response rating,[6]; [13],5
same,S. Flatsedge plant response rating,[6]; [14],8
same,"Plant response rating, S. Flatsedge",[6]; Rate 250 g/ha,9
same,"Plant response rating, S. Flatsedge",[6]; Rate 500 g/ha,9
same,Barnyardgrass plant response rating,[7]; [13],3
same,Barnyardgrass plant response rating,[7]; [14],3
same,"Plant response rating, Barnyardgrass",[7]; Rate 250 g/ha,5
same,"Plant response rating, Barnyardgrass",[7]; Rate 500 g/ha,6
same,Rice plant response rating,rice (Oryza sativa); [13],1
same,Rice plant response rating,rice (Oryza sativa); [14],2
same,"Plant response rating, Rice",rice (Oryza sativa); Rate 250 g/ha,2
same,"Plant response rating, Rice",rice (Oryza sativa); Rate 500 g/ha,4
same,"Plant response rating, Purple nutsedge",[10]; Rate 32 g/ha,0
same,"Plant response rating, Purple nutsedge",[10]; Rate 64 g/ha,5
same,"Plant response rating, Purple nutsedge",[10]; Rate 125 g/ha,5
same,"Plant response rating, Purple nutsedge",[10]; Rate 250 g/ha,10
same,"Plant response rating, P. morninglory",[11]; Rate 32 g/ha,60
same,"Plant response rating, P. morninglory",[11]; Rate 64 g/ha,75
same,"Plant response rating, P. morninglory",[11]; Rate 125 g/ha,90
same,"Plant response rating, P. morninglory",[11]; Rate 250 g/ha,90
same,"Plant response rating, Com. groundsel",[12]; Rate 64 g/ha,50
same,"Plant response rating, Com. groundsel",[12]; Rate 125 g/ha,95
same,"Plant response rating, Blackgrass",[9]; [15],3
same,Blackgrass plant response rating,"[9]; Rate 62 g/ha, Postemergence",5
same,Blackgrass plant response rating,"[9]; Rate 125 g/ha, Postemergence",8
same,"Plant response rating, Blackgrass","[9]; Rate 125 g/ha, Preemergence",4
same,"Plant response rating, Blackgrass","[9]; Rate 250 g/ha, Postemergence",9
same,"Plant response rating, Blackgrass","[9]; Rate 250 g/ha, Preemergence",8
same,"Plant response rating, Blackgrass","[9]; Rate 500 g/ha, Postemergence",10
same,"Plant response rating, Blackgrass","[9]; Rate 500 g/ha, Preemergence",9
same,"Plant response rating, Wild oats",wild oat (Avena fatua); [15],3
same,Wild oats plant response rating,"wild oat (Avena fatua); Rate 62 g/ha, Postemergence",5
same,Wild oats plant response rating,"wild oat (Avena fatua); Rate 125 g/ha, Postemergence",7
same,"Plant response rating, Wild oats","wild oat (Avena fatua); Rate 125 g/ha, Preemergence",5
same,"Plant response rating, Wild oats","wild oat (Avena fatua); Rate 250 g/ha, Postemergence",8
same,"Plant response rating, Wild oats","wild oat (Avena fatua); Rate 250 g/ha, Preemergence",6
same,"Plant response rating, Wild oats","wild oat (Avena fatua); Rate 500 g/ha, Postemergence",8
same,"Plant response rating, Wild oats","wild oat (Avena fatua); Rate 500 g/ha, Preemergence",9
